Assay results: US12678440B2, “Compositions and methods for treating misfolded protein ocular disorders” (CASE WESTERN RESERVE UNIVERSITY, priority 2020, dated 2026)

How the values were obtained:
WT rhodopsin = assay: Immunoblot of rhodopsin, MTX plus BafA1 or MG-132, NIH3T3 (RHO^WT/GFP) cells; assay type: cell-based
Procedure: (§1) Cells were seeded in 6-well plates at a density of 5×10^5 cells/well and cultured at 37° C. with 5% CO2 for 17 h. The medium was replaced with a fresh medium containing a corresponding concentration of compounds. After treatment for 24 h, cells collected and lysed in 150 μL PBS containing 0.1% SDS and complete protease inhibitor cocktail with 12 s of sonication on ice. Retina samples were lysed in 300 μL per retina of PBS containing 0.1% SDS and complete protease inhibitor cocktail under 24 s of sonication on ice. Protein concentrations were determined by measurements of OD280 nm using a Nanodrop spectrometer. To immunoblot rhodopsin, one hundred μg of total protein for NIH3T3 (RHO^P23H/GFP) cells, or twenty μg of total protein for NIH3T3 (RHO^WT/GFP) cells was loaded per well onto an SDS-PAGE gel. To detect other proteins, fifty μg of total protein was loaded per well. After separation by electrophoresis in 10% and 16% SDS-PAGE gels, proteins were transferred to a nitrocellulose membrane using a wet membrane electrotransfer cassette followed by blocking with 5% bovine serum albumin in PBS containing 0.05% Tween 20 for 1 h. The membranes were incubated with primary antibodies at 4° C. overnight following with appropriate secondary antibodies for 1 h at room temperature. […]

[1] = test system: SQSTM1/p62 and LC3-II in retinae of Rho^P23H/+ knock-in mice; assay: Autophagy flux in retinae after intravitreal injection (immunoblots of SQSTM1/p62 and LC3); assay type: in vivo, mouse; conditions: 25 pmol IVI at PND 15, 48 h, vs PBS
Procedure: as §1

Rho^P23H/+ mice = assay: Electroretinogram (ERG) after intravitreal injection; assay type: in vivo, mouse
Procedure: The C57BL/6J (Rho^+/+) mice and Rho^P23H/P23H mice were purchased from Jackson Laboratory (Stock No 017628) generated by Dr. Krzysztof Palczewski's lab. The Rho^P23H/P23H mice were crossed with wild-type C57BL/6J mice to produce P23H heterozygotes mice. Genotyping for all strains was conducted as guided using forward and reverse primers: 1) GGTAGCACTGTTGGGCATCT (SEQ ID NO: 5); and 2) GACCCCACAGAGACAAGCTC (SEQ ID NO: 6), respectively. The PCR products at 573 and 399 bp indicated the P23H knock-in mutant and WT allele of the RHO gene, respectively. Mice were bred and housed under standard 12-h light/12-h dark conditions in the University of Pittsburgh animal facility. All animal experiments were approved by the University of Pittsburgh Institutional Animal Care and Use Committee (IACUC) following the guide for the Animal Welfare Act and Regulations.
To determine the effect of compounds on retina in vivo, we administered compounds directly into the vitreous space. Briefly, mice were treated with 1% tropicamide eye drops (Akorn, Lake Forest, IL USA) to dilate the pupils and then they were anesthetized with an intraperitoneal injection of ketamine (Henry Schein, Dublin, OH USA) at 80 mg/kg body weight (bw) and xylazine (Bimeda, Le Sueur, MN USA) at 7 mg/kg bw. One drop of 0.5% tetracaine hydrochloride (TCI, Tokyo, Japan) was applied to mouse eyes as topical anesthetics before injection. Eyes were kept lubricated during the injections by a 0.3% hypromellose eye gel (Alcon, Fort Worth, TX USA). A heating pad was used for maintaining body temperature. Mice were positioned to expose the sclera of the eyes. A 30-gauge needle (Medline, Northfield, IL USA) was used to puncture a hole through sclera behind limbus at a 45° angle. A 33-gauge blunt-end needle (Hamilton, Reno, NV USA) was used to be inserted into the hole and a total of 0.5 μL of sterile PBS or MTX in PBS was slowly injected into the posterior chamber and the needle was kept in place for about 30 seconds before a slow removal of the needle. A small amount of Triantibiotic ointment (Medline, Northfield, IL USA) was applied on the injection site to prevent infection. A single IVI with 25 or 100 pmol of MTX was administered to one eye of each Rho^P23H/+ mice at postnatal day (PND) 15, and PBS was injected to the other eye as vehicle control. We also performed four weekly IVIs of MTX or PBS to the second group of Rho^P23H/+ mouse eyes at PND 15, 22, 29 and 36.
ERG was performed using the Celeris system (Diagnosys, Lowell, MA, USA), as described previously. Before each test, mice were kept in the dark overnight. Pupils were dilated with 1% tropicamide (Akorn, Lake Forest, IL, USA). Mice were anesthetized with an intraperitoneal injection of ketamine at 80 mg/kg bw and xylazine at 7 mg/kg bw. Eyes were lubricated by a 0.3% hypromellose eye gel (Alcon, Fort Worth, TX, USA). A heating pad was used to maintain body temperature at 37° C. Scotopic ERG responses of dark-adapted eyes to ten flashes from 0.01 cd·s/m^2 to 30 cd·s/m^2 were recorded and averaged from three sweeps per flash intensity with inter-sweep intervals of 10 to 30 s. After exposed to 10 cd/m^2 illumination for 5 min, the photopic ERG responses were recorded from the light-adapted eyes in respond to flashes from 0.01 cd·s/m^2 to 30 cd·s/m^2 in addition to a 10 cd/m^2 background light. P-values were calculated by a two-way ANOVA to determine the statistical significance between the response amplitudes in the MTX-treated and vehicle (PBS) group. Factor 1, treatment condition; and factor 2, flash intensity.

rabbits = conditions: 1.76 μmol MTX (about 1 mM in vitreous); cited from earlier work
[2] = cited from earlier work
[3] = single IVI 25 pmol at PND 15, ERG at PND 32, vs PBS or non-treated
[4] = single IVI 100 pmol at PND 15, ERG at PND 32

**Q.** For `CN(Cc1cnc2nc(N)nc(N)c2n1)c1ccc(C(=O)N[C@@H](CCC(=O)O)C(=O)O)cc1` [CL-009, N-[4-[[(2,4-diamino-6-pteridinyl)methyl]methylamino]benzoyl]-L-glutamic acid], which “WT rhodopsin level under BafA1 and MTX co-treatment (immunoblot)” value (WT rhodopsin; 10 μM MTX + 100 nM BafA1, 24 h) is on record?
**A.** accumulation of WT rhodopsin

**Q.** And the “WT rhodopsin accumulation under MG-132 plus MTX (immunoblot)” value (WT rhodopsin; 10 μM MTX + 5 μM MG-132, 24 h)?
**A.** did not

**Q.** And the “LC3-II level in retinae” value [1]?
**A.** increase

**Q.** What about the “SQSTM1/p62 level in retinae” value [1] of the same compound?
**A.** decrease

**Q.** What about the “multi-flash scotopic and photopic b-waves” value (Rho^P23H/+ mice; four weekly IVIs from PND 15, ERG at PND 44, vs PBS) of the same compound?
**A.** significantly increased

**Q.** What about the photopic b-waves (Rho^P23H/+ mice; four weekly IVIs of 100 pmol, vs PBS, at higher flash intensities) of the same compound?
**A.** higher

**Q.** And the “multi-flash scotopic ERG a- and b-waves” value (Rho^P23H/+ mice; [3])?
**A.** significantly higher

**Q.** And the “photopic ERG responses” value (Rho^P23H/+ mice; [3])?
**A.** higher

**Q.** And the “multi-flash scotopic ERG a- and b-waves” value (Rho^P23H/+ mice; [4])?
**A.** no effect

**Q.** What about the “photopic ERG responses” value (Rho^P23H/+ mice; [4]) of the same compound?
**A.** did not show any effects

**Q.** What about the “ratio of scotopic and photopic b- to a-wave amplitudes” value (Rho^P23H/+ mice; single IVI 25 or 100 pmol) of the same compound?
**A.** not affected

**Q.** And the “retinal damage after intravitreal injection” value (rabbits)?
**A.** Retinal damages were observed

**Q.** And the water solubility [2]?
**A.** water-soluble
